Data from ChEMBL document CHEMBL1147516, “Synthesis and evaluation of lasonolide A analogues” (2004).

What was measured:
Format in all cases: functional
Conditions in all cases: Homo sapiens
A549 = assay: Growth inhibition against A549 cell line was evaluated
HCT-116 = assay: Growth inhibition against HCT116 cell line was evaluated
NCI-H46 = assay: Growth inhibition against NCI-H460 cell line was evaluated

Row | Structure (SMILES) | GI50 (A549) [nM] | GI50 (HCT-116) [nM] | GI50 (NCI-H46) [nM]
1 | CCCCCCCCCCCCOC(=O)[C@H](O)C/C=C\C[C@@H]1O[C@@H]2/C=C/C/C=C/C(C)=C\[C@H]3O[C@@H](C/C=C/C=C/C(=O)O[C@H](C2)[C@@]1(C)CO)C[C@H](O)[C@H]3C | 200 | 190 | 170
2 | C=C(CCC(C)C)COC(=O)[C@H](O)C/C=C\C[C@@H]1O[C@@H]2/C=C/C/C=C/C(C)=C\[C@H]3O[C@@H](C/C=C/C=C/C(=O)O[C@H](C2)[C@@]1(C)CCO)C[C@H](O)[C@H]3C | 800 | 1800 | 1000
3 | C=C(CCC(C)C)COC(=O)[C@H](O)C/C=C\C[C@@H]1O[C@@H]2/C=C/C/C=C/C(C)=C\[C@@H]3C[C@@H](O)C[C@H](C/C=C/C=C/C(=O)O[C@H](C2)[C@@]1(C)CO)O3 | 100 | 45 | 65
4 | C=C(CCC(C)C)COC(=O)[C@H](O)C/C=C\C[C@@H]1O[C@@H]2/C=C/C/C=C/C(C)=C\[C@H]3O[C@@H](C/C=C/C=C/C(=O)O[C@H](C2)[C@@]1(C)CO)C[C@H](O)[C@H]3C [LASONOLIDE A] | 15 | 3 | < 3
5 | CCOC(=O)[C@H](O)C/C=C\C[C@@H]1O[C@@H]2/C=C/C/C=C/C(C)=C\[C@H]3O[C@@H](C/C=C/C=C/C(=O)O[C@H](C2)[C@@]1(C)CO)C[C@H](O)[C@H]3C [LASONOLIDE E] | 7 | 100 | 15
